The source of these data is doi:10.1101/2020.02.14.948786v2 (bioRxiv, 2020).

The subject of this assay is Ca^2+ spiking in Neurospora crassa conidia expressing GCaMP6s. In words: Ca^2+ spiking in single conidia expressing GCaMP6s. It counts as cell-based. The following applies: conidia pre-treated with 5 mM BAPTA before ddH2O or PAF26 treatment.

As for `O=C(O)CN(CC(=O)O)c1ccccc1OCCOc1ccccc1N(CC(=O)O)CC(=O)O` [BAPTA], the “frequency of Ca^2+ spiking after chelation of external Ca^2+” value came out at 0.
